# How the values were obtained:
# Type in all cases: cell-based
# [1] = system: LNCaP/AR cells; test: PSA expression readout in LNCaP/AR; details: for activity in the hormone refractory LNCaP/AR assay: Schemes 18 and 19; for activity: hormone-refractory LNCaP/AR, Scheme 21
# [2] = system: AR; test: luciferase reporter assay; details: for relative luciferase activity: vs bicalutamide and 27 as standards, Scheme 8
# [3] = system: PSA secretion; test: relative PSA level / PSA secretion assay, cell line not named; details: for relative PSA expression levels: vs bicalutamide and 27 as standards, Scheme 9
# [4] = vs 27 and 38 as standards, Scheme 12
# [5] = vs 21 and 22 as standards, Scheme 13
smiles,measurement,setting,value
"CC(O)(CS(=O)(=O)c1ccc(F)cc1)C(=O)Nc1ccc(C#N)c(C(F)(F)F)c1 (stereo not shown) [bicalutamide, reference compound]",activity using PSA levels in vitro,"[1]; hormone refractory cell line LNCaP/AR, Scheme 17",inactive
"CCC1(C)C(=O)N(c2ccc(C)cc2)C(=S)N1c1ccc(C#N)c(C(F)(F)F)c1 (stereo not shown) [compound 36, 4-[3-(4-Methylphenyl)-5-ethyl-5-methyl-4-oxo-2-thioxoimidazolidin-1-yl]-2-trifluoromethylbenzonitrile]",relative luciferase activity,[2],reduced activity relative to 27
"CCC1(CC)C(=O)N(c2ccc(C)cc2)C(=S)N1c1ccc(C#N)c(C(F)(F)F)c1 [compound 37, 4-[3-(4-Methylphenyl)-5,5-diethyl-4-oxo-2-thioxoimidazolidin-1-yl]-2-trifluoromethylbenzonitrile]",relative luciferase activity,[2],reduced activity relative to 27
"Cc1ccc(N2C(=S)N(c3ccc(C#N)c(C(F)(F)F)c3)C(=O)C23CCCC3)cc1 [compound 39, 4-(4-Oxo-2-thioxo-1-(4-methylphenyl)-1,3-diazaspiro[4.4]non-3-yl)-2-trifluoromethylbenzonitrile]",relative PSA expression levels,[3],comparable to the dimethyl analogue 27
"Cc1ccc(N2C(=S)N(c3ccc(C#N)c(C(F)(F)F)c3)C(=O)C23CCN(C)CC3)cc1 [compound 43, 4-(8-Methyl-4-oxo-2-thioxo-1-(4-methylphenyl)-1,3,8-triazaspiro[4.5]dec-3-yl)-2-trifluoromethylbenzonitrile]",relative PSA expression levels,[3],distinctly less active
N#Cc1ccc(N2C(=O)C3(CCC3)N(c3ccc(-c4ccccc4)cc3)C2=S)cc1C(F)(F)F [compound 48],relative PSA readout,"[3]; vs standards, Scheme 11",very similar in activity to 38
"N#Cc1ccc(N2C(=O)C3(CCC3)N(c3ccc(O)cc3)C2=S)cc1C(F)(F)F [compound 49, 4-(8-Oxo-6-thioxo-5-(4-hydroxyphenyl)-5,7-diazaspiro[3.4]oct-7-yl)-2-trifluoromethylbenzonitrile]",relative PSA readout,"[3]; vs standards, Scheme 11",very similar in activity to 38
"CC1(C)C(=O)N(c2ccc(C#N)c(C(F)(F)F)c2)C(=S)N1c1ccc(C(F)(F)F)cc1 [compound 52, 4-(4,4-Dimethyl-5-oxo-2-thioxo-3-(4-trifluoromethylphenyl)imidazolidin-1-yl)-2-trifluoromethylbenzonitrile]",relative PSA readout,"[3]; vs standards, Scheme 11",slightly more active than the methyl analogue 27
Cc1ccc(N2C(=S)N(c3ccc(C#N)c(C(F)(F)F)c3)C(=N)C23CCC3)cc1 [compound 53],relative PSA readout,[3]; [4],nearly as active as the parent compounds 27 and 38
Cc1ccc(N2C(=S)N(c3ccc(C#N)c(C(F)(F)F)c3)C(=N)C2(C)C)cc1 [compound 54],relative PSA readout,[3]; [4],nearly as active as the parent compounds 27 and 38
CC1(C)C(=S)N(c2ccc(C#N)c(C(F)(F)F)c2)C(=S)N1c1ccc(O)cc1 [compound 55],relative PSA readout,[3]; [4],not as active as the parent thiohydantoin 28
CC1(C)C(=O)N(c2ccc(C#N)c(C(F)(F)F)c2)C(=O)N1c1ccc(O)cc1 [compound 56],relative PSA readout,[3]; [4],not as active as the parent thiohydantoin 28
C/N=C1\N(c2ccc(C#N)c(C(F)(F)F)c2)C(=S)N(c2ccc(C)cc2)C12CCC2 [compound 57],relative PSA levels,[3]; [5],somewhat active
same,luciferase assay activity,[2]; [5],somewhat active
"N#Cc1ccc(N2C(=O)C3(CCC3)N(c3ccc(C=O)cc3)C2=S)cc1C(F)(F)F [compound 75, 4-[5-(4-Formylphenyl)-8-oxo-6-thioxo-5,7-diazaspiro[3.4]oct-7-yl]-2-trifluoromethylbenzonitrile]",IC50,[3],200 to 300 nM
"CC(O)c1ccc(N2C(=S)N(c3ccc(C#N)c(C(F)(F)F)c3)C(=O)C23CCC3)cc1 (stereo not shown) [compound 76, 4-{5-[4-(1-Hydroxyethyl)phenyl]-8-oxo-6-thioxo-5,7-diazaspiro[3.4]oct-7-yl}-2-trifluoromethylbenzonitrile]",IC50,[3],200 to 300 nM
"N#Cc1ccc(N2C(=O)C3(CCC3)N(c3ccc(/C=C/C(N)=O)cc3)C2=S)cc1C(F)(F)F [compound 77, (E)-3-{4-[7-(4-cyano-3-trifluoromethylphenyl)-8-oxo-6-thioxo-5,7-diazaspiro[3.4]oct-5-yl]-phenyl}-2-propanamide]",IC50,[3],100 to 150 nM
"N#Cc1ccc(N2C(=O)C3(CCC3)N(c3ccc(/C=C/CO)cc3)C2=S)cc1C(F)(F)F [compound 78, (E)-4-{5-[4-(3-Hydroxy-1-propenyl)phenyl]-8-oxo-6-thioxo-5,7-diazaspiro[3.4]oct-7-yl}-2-trifluoromethylbenzonitrile]",IC50,[3],100 to 150 nM
"CS(=O)(=O)c1ccc(N2C(=S)N(c3ccc(C#N)c(C(F)(F)F)c3)C(=O)C23CCC3)cc1 [compound 86, 4-[5-(4-Methanesulfonylphenyl)-8-oxo-6-thioxo-5,7-diazaspiro[3.4]oct-7-yl]-2-trifluoromethylbenzonitrile]",activity in the hormone refractory LNCaP/AR assay,[1],good activity
"COC(=O)c1ccc(N2C(=S)N(c3ccc(C#N)c(C(F)(F)F)c3)C(=O)C2(C)C)cc1 [compound 87, 4-[3-(4-Cyano-3-trifluoromethylphenyl)-5,5-dimethyl-4-oxo-2-thioxo-imidazolidin-1-yl]benzoic acid methyl ester]",activity in the hormone refractory LNCaP/AR assay,[1],good activity
"CNC(=O)c1ccc(N2C(=S)N(c3ccc(C#N)c(C(F)(F)F)c3)C(=O)C2(C)C)cc1 [compound 88, 4-[3-(4-Cyano-3-trifluoromethylphenyl)-5,5-dimethyl-4-oxo-2-thioxo-imidazolidin-1-yl]-N-methylbenzamide]",activity in the hormone refractory LNCaP/AR assay,[1],good activity
"CNC(=O)c1ccc(N2C(=S)N(c3ccc(C#N)c(C(F)(F)F)c3)C(=O)C23CCC3)cc1 [compound 89, N-methyl-4-[7-(4-cyano-3-trifluoromethylphenyl)-8-oxo-6-thioxo-5,7-diazaspiro-[3.4]oct-5-yl]benzamide]",activity in the hormone refractory LNCaP/AR assay,[1],good activity
N#Cc1ccc(N2C(=O)C3(CCC3)N(c3ccc(O)cc3F)C2=S)cc1C(F)(F)F [compound 90],activity in the hormone refractory LNCaP/AR assay,[1],good activity
"CNC(=O)c1ccc(N2C(=S)N(c3ccc(C#N)c(C(F)(F)F)c3)C(=O)C2(C)C)cc1F [compound 92, N-Methyl-4-[3-(4-cyano-3-trifluoromethylphenyl)-5,5-dimethyl-4-oxo-2-thioxoimidazolidin-1-yl]-2-fluorobenzamide]",dose-response study on castration resistant LNCaP AR cells,[1]; Figure 9,a little more active than 91
same,activity,[1],very active
"CNC(=O)c1ccc(N2C(=S)N(c3ccc(C#N)c(C(F)(F)F)c3)C(=O)C23CCCC3)cc1F [compound 93, N-Methyl-4-[3-(4-cyano-3-trifluoromethylphenyl)-4-oxo-2-thioxo-1,3-diazaspiro[4.4]nonan-1-yl]-2-fluorobenzamide]",activity,[1],very active
"CN(C)C(=O)CCCc1ccc(N2C(=S)N(c3ccc(C#N)c(C(F)(F)F)c3)C(=O)C23CCC3)cc1 [compound 94, N,N-dimethyl-4-[4-(7-(4-cyano-3-trifluoromethylphenyl)-8-oxo-6-thioxo-5,7-diazaspiro-[3.4]octan-5-yl)phenyl]butanamide]",activity,[1],quite good activity compared to earlier compounds
"N#CCCCc1ccc(N2C(=S)N(c3ccc(C#N)c(C(F)(F)F)c3)C(=O)C23CCC3)cc1 [compound 95, 4-[5-(4-(3-Cyanopropyl)phenyl)-8-oxo-6-thioxo-5,7-diazaspiro[3.4]octan-7-yl]-2-(trifluoromethyl) benzonitrile]",activity,[1],quite good activity compared to earlier compounds

# Reference: PMC3180999 (Journal of medicinal chemistry, 2010)
